Measurements: patent EP0434750B1 (priority 1988, dated 1990)
Values joined by “and” are separate entries in the source; they are usually repeats but may differ in a detail not shown here. Equal values may be shown once. Read-outs that look alike come from different tables or passages of the source. Values belong to the compound of their own block, whether it stands above or below them.

Columns and labels:
[1] = test system: monkeys (Macaca fascicularis); assay: Neurological examination of MPTP-treated monkeys with or without chloroquine pretreatment; format: in vivo; conditions: for Neurological Status: Reflexes / Neurological Status: Tone: control score 2; for Neurological Status: Spontaneous Movement: control score 10; for Neurological Status: Total (x 5.26): control 100; for Neurological Status: Tremor: control score 5
Source text: Four animals are naive controls. […] TABLE 3

[2] = test system: monkeys (Macaca fascicularis); assay: Dopamine and homovanillic acid levels in monkey brain samples (HPLC); format: in vivo; conditions: short-term chloroquine and MPTP; monkeys S1-3
[3] = test system: Tyrosine hydroxylase (TH); assay: Tyrosine hydroxylase activity in monkey brain homogenate (tritium release method); format: in vivo, Macaca fascicularis; conditions: short-term chloroquine and MPTP; monkeys S1-3
Description: (§5) Thirteen male monkeys (Macaca fascicularis) 5 to 8 years old, weighing 3.5 to 4.8 kg, are studied. […] Nine receive daily (0.35 mg per kg) injections of MPTP i.v. for four days. Three animals (M1-3) who received no chloroquine are the untreated controls. Six animals are pretreated with chioroquine (4 mg per kg) intramuscularly; three (S1-3) are pretreated for 12 days, and three (L1-3) for 24 days. All six pretreated animals continue to receive chloroquine injections during MPTP administration and for 10 days following MPTP exposure.
Detection is done electrochemically on a glassy carbon electrode (Bioanalytical Systems Inc.) at an applied voltage of 0.65 V. Plasma levels of chloroquine are determined by HPLC with UV detection. Samples are deproteinated with 0.2 vol. of 25% trichloroacetic acid followed by centrifugation at 4°C for 30 minutes at 1,000 g. Supernatants are removed, lyophilized overnight and reconstituted with 80 µl of 0.1 M perchloric acid. Samples are analyzed directly using reverse-phase HPLC with a Whatman ODS-3 column (Whatman) and Pellosil C8 guard column (Alltech). The mobile phase for this system is 40% acetonitrile, 0.1 M sodium phosphate (pH 3.0) with 75 mM perchloric acid. Absorption is detected at 343 nm (Bergqvist, Y. et al., Chromat. 221, 2503 (1985)). Tyrosine hydroxylase (TH) activity is assayed by the tritium release method of Nagatsu, T. et al., Analyt. […] Supernatant fluid (50 µl) from brain homogenate (1 g tissue in 20 vol 50 mM Tris, H 7.4) are added to 7 ml glass scintillation vials containing 5 µl 6 DL-6-methyl-5,6,7,8-tetrahydropterine (2.8 mg ml^-1), 5 µl FeSO4 (2.78 mg ml ^-1) and 1 µC of ring labelled [^3H]tyrosine. Mixtures are incubated 30 minutes at 37°C and the reaction terminated by adding 50 µl 3 M Na2CO3, pH 11.6. Toluene/isoamyl alcohol scintillant (5 ml) is then added directly to the vial and the contents mixed for 10 seconds. The aqueous and organic phases are allowed to separate and the ^3H2O extracted into the organic phase determined.

[4] = cynomolgus monkey, in vivo
Description: as §5
Detection is done electrochemically on a glassy carbon electrode (Bioanalytical Systems Inc.) at an applied voltage of 0.65 V. Plasma levels of chloroquine are determined by HPLC with UV detection. Samples are deproteinated with 0.2 vol. of 25% trichloroacetic acid followed by centrifugation at 4°C for 30 minutes at 1,000 g. Supernatants are removed, lyophilized overnight and reconstituted with 80 µl of 0.1 M perchloric acid. Samples are analyzed directly using reverse-phase HPLC with a Whatman ODS-3 column (Whatman) and Pellosil C8 guard column (Alltech). […] Absorption is detected at 343 nm (Bergqvist, Y. et al., Chromat. 221, 2503 (1985)). […] The aqueous and organic phases are allowed to separate and the ^3H2O extracted into the organic phase determined.

[5] = Binding of MPTP to beef eye melanin (Scatchard analysis)
Description: Melanin from beef eyes is prepared according to Potts, A.M., Ophthalmol. 3, 405 (1964). The pigment is finally suspended in distilled water to a concentration of 10 mg (by dry weight) per ml suspension.
(§1) The reaction mixtures are incubated at room temperature for one hour. Reference samples contain distilled water instead of melanin.
(§2) From the obtained data, the classes of binding sites, association constants and the binding capacity of the melanins are estimated according to Scatchard, G. et al., J. Am. Chem. Soc. 79, 12 (1957). As the molecular weight of melanin is unknown, the value for the number of binding sites is expressed as mol per mg melanin. The calculations are based on a melanin content of 2.5 mg per incubation.

[6] = Binding of MPTP to synthetic dopamine melanin (Scatchard analysis)
Description: Synthetic dopamine melanin is prepared by autooxidation (Lyden et al., supra). The dopamine melanin suspension (in distilled water) is adjusted to contain 5 mg melanin per ml. Both pigment suspensions are stored at 2°C.
as §1, §2

[7] = test system: C57 black mice; assay: Striatal DA, DOPAC and HVA content in mice after MPTP; format: in vivo
Description: Male C57BL/6J IMR mice 6-8 weeks of age are used throughout except in one experiment (see below) in which CB6F1 [(BALB/cByJ IMR x C57BL/gJ IMR)F1] mice of a similar age are used. Mice are housed five per cage in plexiglass cages with free access to food and water in a colony room maintained at 23 ± 1°C. Fluorescent lighting in the room is automatically turned on at 06.00 hours and off at 18.00 hours.
(§3) All other studies are performed in C57 black mice.
The mouse striatum is obtained by placing the brain on its dorsal surface and making two coronal cuts; the first at the caudal end of the olfactory bulbs, the second at the level of the optic chiasma. After placing the resulting brain slice on its rostral surface, one horizontal cut is made just below the corpus callosum and another just above the anterior commissure. Remaining parietotemporal cortex is trimmed away using the external capsule as a landmark. Septal tissue lying between the caudate nuclei is removed by cutting along the tissue planes created by the frontal horns of the lateral ventricles. Striatal tissue thus isolated weighs approximately 20 mg per animal. Immediately after dissection, tissue is wrapped in aluminum foil and stored in liquid nitrogen until assay, with the exception of tissue for uptake studies which is used immediately.
The striatum is weighed, placed in a tube containing 1 ml of 0.4 normal perchloric acid, then homogenized with a Beckman polytron at a setting of 5 for 10 seconds. The homogenate is centrifuged at approximately 20,000 x g for 15 minutes. Concentrations of dopamine (DA), DOPAC and HVA in the supernatant are determined by reverse-phase liquid chromatography coupled with electrochemical detection according to the method of Mayer, G.S. et al., J. Chromatogr. 255, 533 (1983), with minor modifications. The mobile phase is prepared by mixing 965 ml of 0.15 M monochloroacetic acid with 35 ml of acetonitrile and adding 193 mg of sodium octyl sulfate. This solution is filtered and degassed and then 18 ml of tetrahydrofuran are added. Using this mobile phase at a flow rate of 1.3 ml/min, DA, DOPAC and HVA are resolved using a 4.6 mm x 25 cm C-18, 5 µ column (Brownless Labs). Detection and quantitation are performed using a dual series electrode detector (Coulochem Model 5100, Environmental Systems Associates, Wiggins, Mass.). Electrode potentials are set at +0.4 V (electrode 1) and -0.3 V (electrode 2). The response on electrode 2 is monitored (10 mV strip chart recorder) and used for quantitation relative to peak heights of known amounts of standards.

[8] = test system: crude striatal synaptosomal suspensions; assay: In vitro accumulation of [3H]DA by crude striatal synaptosomal suspensions; format: biochemical, mice; conditions: for Km: read-out: Km(µm) of [^3H]DA uptake
Description: as §3
The in vitro accumulation of [^3H]DA by crude striatal synaptosomal suspensions is measured using the method of Snyder, S.H. et al., J.Pharmacol.Exp.Ther. 165, 78 (1968) with minor modifications. Briefly, crude synaptosomal suspensions are prepared by homogenizing striatal tissue in 50 vols. (w/v) of ice-cold 0.32 M sucrose, then centrifuging the homogenate for 10 minutes at 1,000 x g. […] After vortexing, tubes (except temperature blanks) are incubated in a waterbath at 37°C for five minutes, then returned to ice. Synaptosomes are harvested by filtration. Filters are rinsed twice with 5 ml aliquots of physiological saline. Radioactivity in the filters is quantified by liquid scintillation spectroscopy. Assays are performed in sextuplicate at each DA concentration, with half of the samples serving as blanks. Active uptake is defined as the difference between [^3H]DA (PM/mg tissue/5 min.) incubation at 37°C after correction for uptake at 0-4°C.

[9] = biological target: [^3H]mazindol binding site, striatal membranes (Mus musculus, UniProt Q61327); conditions: three weeks after MPTP 20 mg/kg/h x 4
Description: This group is used only for anatomical studies looking for cell loss in the substantive nigra cells (SNc). All other studies are performed in C57 black mice.

[10] = Lethality of MPTP regimens in mice; format: in vivo; conditions: mouse, in vivo, ip
Description: as §3
(§4) Approximately 20% of the mice die after the 20 mg/kg/h x 4 regimen. […]

[11] = test system: C57 black mice; assay: Lethality of MPTP regimens in mice; format: in vivo; conditions: 2.5, 5 and 10 mg/kg/h x 4 MPTP regimens
Description: as §3, §4

[12] = test system: C57 black mice; assay: Silver degeneration study of striatal nerve terminals (Fink-Heimer); format: in vivo
Description: Nerve terminal degeneration studies are performed using the method of Fink, R.P. et al., Brain Research 4, 369 (1967) (Procedure 1). This method makes possible selective silver impregnation of degenerating nerve fibers and terminals. Mice for these studies are killed under sodium pentobarbital anesthesia (40 mg/kg) by transcardial perfusion with 10% formal saline. The brain is immediately removed and stored in perfusion fluid at 0-4°C for at least one week before being sectioned on a freezing microtomee. 30 µm coronal sections are collected in 5% formal saline, then stained with silver according to Fink et al., supra.
Some fine granular degeneration is also found in the nucleus accumbens and olfactory tubercle, but in these regions it was much less dense. No such degeneration is found in identically treated sections of control mice, or in other brain regions visible in coronal brain sections at the level of the striatum.

[13] = test system: squirrel monkeys; assay: Treatment of MPTP-induced parkinsonism in squirrel monkeys; format: in vivo; conditions: i.p. MPTP, three dosage schedules (Groups A-C)
Description: Male squirrel monkeys (aged 2-3 years) are used for this study. […] All injections are intraperitoneal.
Three different dosage schedules of MPTP are used. Monkey Group A receives four doses, 2 mg/kg each, which are given at two-hour intervals. Monkey Group B is treated over a five-day period. On day 1, a single 2 mg/kg dose is given. On day 3, two injections of 2 mg/kg each are given, six hours apart. On day 5, a 3 mg/kg dose is given followed by a 0.5 mg/kg dose four hours later (total dose: 9.5 mg/kg). Three doses of 3 mg/kg each are given to Monkey Group C, spaced at six-day intervals. Monkey Group D serves as a control.
A similar response to the same treatment is observed on each of the next four days. Subsequently, the animal becomes less responsive to medication and is sacrificed on day 10. One monkey in Group B responds to Sinemet® (one-eighth of a 10/100 tablet) with full mobility on day 9. However, on subsequent days, […] becomes increasingly less responsive to medication, often appearing uncoordinated and shaky. This monkey is sacrificed on day 15. […] Three days later, this monkey becomes profoundly hypokinetic, develops slow respirations, and dies.
After increased bradykinesis and frequent nodding-off are observed in the monkeys, several monkeys of Groups A, B and C are administered melanin by injection into the cerebrospinal fluid at a dose of 50 mg/kg daily. […]

[14] = long-term chloroquine (24 days) plus MPTP, monkeys L1-3
[15] = short-term chloroquine (12 days) plus MPTP, monkeys S1-3
[16] = one week after MPTP 20 mg/kg/h x 4
[17] = three months after MPTP 20 mg/kg/h x 4

[^3H]mazindol binding site, striatal membranes, sequence (Q61327 whole entry): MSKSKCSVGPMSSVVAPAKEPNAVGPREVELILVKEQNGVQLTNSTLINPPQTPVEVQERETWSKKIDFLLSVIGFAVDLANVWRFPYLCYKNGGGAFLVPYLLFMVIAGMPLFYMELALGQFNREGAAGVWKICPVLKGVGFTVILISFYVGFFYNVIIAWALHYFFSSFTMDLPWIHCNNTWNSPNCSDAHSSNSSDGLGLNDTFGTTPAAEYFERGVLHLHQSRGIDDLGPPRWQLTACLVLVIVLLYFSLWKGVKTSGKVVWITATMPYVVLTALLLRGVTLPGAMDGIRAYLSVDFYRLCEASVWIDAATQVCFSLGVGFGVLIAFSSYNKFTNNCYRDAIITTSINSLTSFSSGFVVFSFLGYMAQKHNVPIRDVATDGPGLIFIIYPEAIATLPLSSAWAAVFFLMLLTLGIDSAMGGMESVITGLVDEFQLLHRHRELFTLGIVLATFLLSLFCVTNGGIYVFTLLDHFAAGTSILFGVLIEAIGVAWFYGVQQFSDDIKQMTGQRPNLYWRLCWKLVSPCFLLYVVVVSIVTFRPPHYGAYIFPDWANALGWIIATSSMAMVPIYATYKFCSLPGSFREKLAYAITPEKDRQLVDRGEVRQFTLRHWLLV

SMILES: CCN(CC)CCCC(C)Nc1ccnc2cc(Cl)ccc12 (stereo not shown) [Chloroquine]
protection from MPTP-induced parkinsonian clinical symptoms ([1]; chloroquine 4 mg per kg i.m. pretreatment, 12 or 24 days): Five of the six monkeys
Neurological Status: Reflexes [1, 14]: 1 and 2
Neurological Status: Tone [1, 14]: 1.5 and 1 and 2
Neurological Status: Spontaneous Movement ([1]; short-term chloroquine 4 mg per kg i.m., pretreated 12 days, plus MPTP, monkeys S1-3): 3
Neurological Status: Total (x 5.26) [1, 15]: 47 and 58 and 42
Neurological Status: Reflexes [1, 15]: 1 and 2
Neurological Status: Tone [1, 15]: 2 and 1
Neurological Status: Tremor [1, 15]: 3 and 4
CAUDATE HVA [2]: 8.0 nmol per g tissue and 10.5 nmol per g tissue and 9.2 nmol per g tissue
PUTAMEN HVA [2]: 10.1 nmol per g tissue and 8.6 nmol per g tissue and 9.8 nmol per g tissue
CAUDATE TH (% control) [3]: 14.0 % control and 18.7 % control and 22.6 % control
PUTAMEN TH (% control) [3]: 20.0 % control and 23.3 % control and 29.8 % control
Chloroquine level relative to that in other monkeys monitored [4]: * Chloroquine level is 36% of that in other monkeys monitored.
Chloroquine in plasma ([4]; im, 4 mg/kg): 300 ng ml^-

SMILES: CN1CC=C(c2ccccc2)CC1 [MPTP, 1-Methyl-4-phenyl-1,2,5,6-tetrahydropyridine]
association constant K1 ([5]; MPTP 5.7 µM - […], room temperature, one hour, first class of binding sites, 60 min): K1 = 2.32 x 10^5 M^-1
total binding capacity (Σn) ([5]; beef eye melanin): 0.53 µmol/mg melanin
number of binding sites n1 ([5]; first class of binding sites): n1 = 0.09 µ mole per mg melanin
number of binding sites n2 ([5]; second class of binding sites): n2 = 0.44 µ mole per mg melanin
association constant K2 ([5]; second class of binding sites, 60 min): K2 = 1.22 x 10^3 M^-1
number of binding sites n1 ([6]; first class of binding sites): n1 = 0.08 µ mole per mg melanin
association constant K1 ([6]; first class of binding sites, 60 min): K1 = 5.82 x 10^5 M^-1
association constant K2 ([6]; second (intermediary) class of binding sites, 60 min): K2 = 1.22 x 10^4 M^-1
number of binding sites n2 ([6]; second class of binding sites): n2 = 0.05 µ mole per mg melanin
number of binding sites n3 ([6]; third class of binding sites): n3 = 0.14 µ mole per mg melanin
association constant K3 ([6]; third class of binding sites, 60 min): K3 = 7.68 x 10^2 M^-1
Neurological Status: Spontaneous Movement ([1]; MPTP alone 0.35 mg per kg i.v. daily for four days, individual monkeys): 1
Neurological Status: Total (x 5.26) ([1]; MPTP alone, individual monkeys): 16 and 29 and 8
Neurological Status: Reflexes ([1]; MPTP alone, individual monkeys): 0.5 and 1.5 and 0
Neurological Status: Tone ([1]; MPTP alone, individual monkeys): 0.5 (2×) and 2
Neurological Status: Tremor ([1]; MPTP alone, individual monkeys): 1 (2×) and 0
striatal DA level, % of control ([7]; 15 months after MPTP 20 mg/kg/h x 4): 69 % of control
striatal concentration of DOPAC ([7]; MPTP 20 mg/kg/h x 4, control 0.96 (±0.14)): 0.28 (±0.02) µg/g
striatal concentration of HVA ([7]; MPTP 20 mg/kg/h x 4, control 1.38 (±0.05)): 0.60 (±0.06) µg/g
DA ([7]; mouse striatum one week after MPTP 20 mg/kg/h x 4 i.p.): 2.8 ± 0.5 µg/g
DA ([7]; mouse striatum one week after MPTP 30 mg/kg/day x 10 i.p.): 3.5 ± 0.3 µg/g
% Depletion of striatal DA [7, 16]: 74%
HVA, % of control [7, 16]: 43 % of control
striatal DA level, % of control [7, 16]: 28 % of control
% Depletion of striatal DA ([7]; one week after MPTP 30 mg/kg/day x 10): 67%
HVA, % of control [7, 17]: 80 % of control
depletion of striated DA [7, 17]: 34%
HVA ([7]; three months after MPTP, control 1.36 ± 0.11): 1.09 ± 0.04 µg/g
DOPAC ([7]; three months after MPTP, controls 1.53 ±0.09 µg/g): 1.03 ± 0.03 µg\g
Vmax of [^3H]DA striatal uptake, % of control [8, 16]: 37 % of control
decrease of Vmax of striatal synaptosomal [^3H]DA uptake [8, 16]: 62%
Vmax of [^3H]DA uptake ([8]; one week after MPTP 20 mg/kg/h x 4, control 5540 ± 480): 2080 ± 305 cpm[^3H]DA/mg tissue/5 min
Km ([8]; striatal synaptosomes of mice one week after MPTP 20 mg/kg/h x 4): 0.12 ± 0.02 µM
Vmax of [^3H]DA striatal uptake, % of control [8, 17]: 79 % of control
Vmax of [^3H]DA striatal uptake ([8]; three months after MPTP, control 6238 (± 520)): 4928 (± 408) CPM [^3H]DA/mg tissue/5 min
reduction of Bmax of [^3H]mazindol binding sites [9]: 44%
Bmax of [^3H]mazindol binding ([9]; control 361): 201 pmol/g tissue
mortality ([10]; 20 mg/kg/h x 4 regimen, read-out: mice that die): ~20%
mortality ([10]; read-out: animals killed): > 50%
lethality [11]: No lethality
fine granular argyrophilic debris in striata ([12]; MPTP 20 mg/kg/h x 4, killed one day later): Three of three mice
behavioural effect of MPTP [13]: profoundly akinetic

Km ([8]; striatal synaptosomes of control mice): 0.14 ± 0.02 µM
SMILES: NCCc1ccc(O)c(O)c1 [[^3H]DA, dopamine]

SMILES: C#CCN(C)Cc1ccccc1 [pargyline]
evidence of striatal terminal degeneration ([12]; pretreated with 25 mg/kg of pargyline, then MPTP 20 mg/kg/h x 4): None of three mice
